Data: US8987195B2 (priority 2012, dated 2015)
Where two headings read alike, the source gives them in different places.

Assays:
[1] = rcm bond
[2] = from Boc-(2S)-2-aminonon-8-enoyl-Hyp-(vinylACCA)-OMe?; rcm bond; 15-membered ring; Hoveyda-Grubbs 1st gen; DCM; 9.85 mM; 40.0 °C
[3] = target: HCV NS3/4A protease genotype 1b (Hepatitis C virus genotype 1b, UniProt P26663); assay: HCV NS3/4A protease time-resolved fluorescence (TRF) assay, Ki against genotype 1b; assay type: biochemical; details: IC50 [gt-1b] (nM), NS3/4A genotype 1b, enzyme 0.2 nM
Sequence of HCV NS3/4A protease genotype 1b (P26663 1027-1657): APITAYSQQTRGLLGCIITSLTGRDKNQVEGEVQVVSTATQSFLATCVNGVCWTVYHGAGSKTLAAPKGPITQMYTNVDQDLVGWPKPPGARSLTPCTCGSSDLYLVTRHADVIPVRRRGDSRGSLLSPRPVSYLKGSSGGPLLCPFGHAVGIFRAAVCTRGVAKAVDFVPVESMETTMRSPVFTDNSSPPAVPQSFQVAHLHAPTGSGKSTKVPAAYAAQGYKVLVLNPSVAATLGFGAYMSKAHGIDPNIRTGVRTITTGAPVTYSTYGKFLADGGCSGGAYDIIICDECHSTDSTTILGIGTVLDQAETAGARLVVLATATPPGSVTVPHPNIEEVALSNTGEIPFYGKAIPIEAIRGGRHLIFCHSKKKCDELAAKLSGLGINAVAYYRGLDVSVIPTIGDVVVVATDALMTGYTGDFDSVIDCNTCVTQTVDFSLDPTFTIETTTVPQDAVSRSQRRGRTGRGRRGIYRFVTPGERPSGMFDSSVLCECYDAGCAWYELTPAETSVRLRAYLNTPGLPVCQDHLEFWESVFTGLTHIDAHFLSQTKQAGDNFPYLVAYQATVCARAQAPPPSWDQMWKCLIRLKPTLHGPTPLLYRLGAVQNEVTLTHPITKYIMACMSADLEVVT
Sequence of HCV NS3/4A protease genotype 1b (P26663 1658-1711): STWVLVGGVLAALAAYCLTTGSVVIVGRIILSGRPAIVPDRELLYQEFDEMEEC
Outline: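 Ki values come from IC50 fits corrected for substrate concentration and KM. The time-resolved fluorescence protease reaction used 25 nM peptide substrate, 2.5 h, room temperature, pH 7.5 HEPES buffer, after 30 min enzyme–inhibitor preincubation.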

HCV genotype 1b replicon = assay: HCV replicon assay, genotype 1b replicon EC50; assay type: cell-based, Hepatitis C virus; details: Hepatitis C virus, genotype 1b replicon; read-out: EC50 [gt-1b]
Outline: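 Potency comes from a four-parameter fit of signal as percent of DMSO control. Replicon-bearing cells were treated 24-48 hours with a compound dilution series in absence of G418, and replicon RNA was quantified normalized to cyclophilin A RNA, or luciferase read.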

Work on `CC(C)(C)OC(=O)N[C@H]1CCCCC/C=C\[C@@H]2C[C@@]2(C(=O)NS(=O)(=O)C2(C)CC2)NC(=O)[C@@H]2C[C@]3(CCc4c(c(CO)nc5ccccc45)O3)CN2C1=O` yielded a ring closure, yield of all isomers ([1]; from C=CCCCCC[C@H](NC(=O)OC(C)(C)C)C(=O)N1C[C@@]2(CCc3c(c(CO)nc4ccccc34)O2)C[C@H]1C(=O)N[C@]1(C(=O)NS(=O)(=O)C2(C)CC2)C[C@H]1C=C, Zhan's catalyst, DCE, 2.0 mM, 65.0 °C, 2.0 h) of 45.1%.
Compound `CC(C)(C)OC(=O)N[C@H]1CCCCCC=C[C@@H]2C[C@@]2(C(=O)NS(=O)(=O)C2(C)CC2)NC(=O)[C@@H]2C[C@]3(CCc4c(c(C(F)(F)F)nc5ccccc45)O3)CN2C1=O` has a ring closure, yield of all isomers ([1]; from C=CCCCCC[C@H](NC(=O)OC(C)(C)C)C(=O)N1C[C@@]2(CCc3c(c(C(F)(F)F)nc4ccccc34)O2)C[C@H]1C(=O)N[C@]1(C(=O)NS(=O)(=O)C2(C)CC2)C[C@H]1C=C, Zhan's catalyst, DCE, 2.94 mM, 75.0 °C) of 73.4%.
Work on `CCOC(=O)[C@@]12C[C@H]1C=CCCCCC[C@H](NC(=O)OC(C)(C)C)C(=O)N1C[C@@]3(CCc4c(c(C)nc5c(C(F)(F)F)cccc45)O3)C[C@H]1C(=O)N2` yielded a ring closure, yield of all isomers ([1]; from C=CCCCCC[C@H](NC(=O)OC(C)(C)C)C(=O)N1C[C@@]2(CCc3c(c(C)nc4c(C(F)(F)F)cccc34)O2)C[C@H]1C(=O)N[C@]1(C(=O)OCC)C[C@H]1C=C, Zhan's catalyst, DCE, 3.36 mM, 65.0 °C, 3.0 h) of 50%.
Work on `CCOC(=O)[C@@]12C[C@H]1C=CCCCCC[C@H](NC(=O)OC(C)(C)C)C(=O)N1C[C@@]3(CCc4c(c(C)nc5c(F)cccc45)O3)C[C@H]1C(=O)N2` yielded a ring closure, yield of all isomers ([1]; from C=CCCCCC[C@H](NC(=O)OC(C)(C)C)C(=O)N1C[C@@]2(CCc3c(c(C)nc4c(F)cccc34)O2)C[C@H]1C(=O)N[C@]1(C(=O)OCC)C[C@H]1C=C, Zhan's catalyst, DCE, 4.53 mM, 65.0 °C, 1.0 h) of 48%.
With `CCOC(=O)[C@@]12C[C@H]1C=CCCCCC[C@H](NC(=O)OC(C)(C)C)C(=O)N1C[C@@]3(CCc4c(c(C)nc5ccc(C)cc45)O3)C[C@H]1C(=O)N2` the ring closure, yield of all isomers ([1]; from C=CCCCCC[C@H](NC(=O)OC(C)(C)C)C(=O)N1C[C@@]2(CCc3c(c(C)nc4ccc(C)cc34)O2)C[C@H]1C(=O)N[C@]1(C(=O)OCC)C[C@H]1C=C, Zhan's catalyst, DCE, 3.55 mM, 65.0 °C, 3.0 h) was 68%.
`CCOC(=O)[C@@]12C[C@H]1C=CCCCCC[C@H](NC(=O)OC(C)(C)C)C(=O)N1C[C@@]3(CCc4c(c(C)nc5ccc(F)cc45)O3)C[C@H]1C(=O)N2` gave a ring closure, yield of all isomers ([1]; from C=CCCCCC[C@H](NC(=O)OC(C)(C)C)C(=O)N1C[C@@]2(CCc3c(c(C)nc4ccc(F)cc34)O2)C[C@H]1C(=O)N[C@]1(C(=O)OCC)C[C@H]1C=C, Zhan's catalyst, DCE, 2.83 mM, 75.0 °C, 4.0 h) of 47%.
`COC(=O)[C@@]12C[C@H]1/C=C\CCCCC[C@H](NC(=O)OC(C)(C)C)C(=O)N1C[C@H](O)C[C@H]1C(=O)N2` showed a ring closure, isolated yield [2] of 74% and a ring closure, yield of all isomers ([1]; from C=CCCCCC[C@H](NC(=O)OC(C)(C)C)C(=O)N1C[C@H](O)C[C@H]1C(=O)N[C@]1(C(=O)OC)C[C@H]1C=C, Grubbs-Hoveyda 1st generation catalyst, DCM, 9.85 mM, 40.0 °C, 40.0 h) of 74%.
With `COc1ccc2nc(CO)c3c(c2c1Cl)CC[C@]1(C[C@H]2C(=O)N[C@]4(C(=O)NS(=O)(=O)C5(C)CC5)C[C@H]4C=CCCCCC[C@H](NC(=O)OC(C)(C)C)C(=O)N2C1)O3` the ring closure, yield of all isomers ([1]; from C=CCCCCC[C@H](NC(=O)OC(C)(C)C)C(=O)N1C[C@@]2(CCc3c(c(CO)nc4ccc(OC)c(Cl)c34)O2)C[C@H]1C(=O)N[C@]1(C(=O)NS(=O)(=O)C2(C)CC2)C[C@H]1C=C, Zhan's catalyst, DCE, 1.91 mM, 65.0 °C, 3.0 h) was 25.9%.
`Cc1nc2ccc(Cl)cc2c2c1O[C@]1(CC2)C[C@H]2C(=O)N[C@]3(C(=O)NS(=O)(=O)C4(C)CC4)C[C@H]3C=CCCCCC[C@H](NC(=O)OC(C)(C)C)C(=O)N2C1` showed a ring closure, yield of all isomers ([1]; from C=CCCCCC[C@H](NC(=O)OC(C)(C)C)C(=O)N1C[C@@]2(CCc3c(c(C)nc4ccc(Cl)cc34)O2)C[C@H]1C(=O)N[C@]1(C(=O)NS(=O)(=O)C2(C)CC2)C[C@H]1C=C, Zhan's catalyst, DCE, 2.4 mM, 75.0 °C, 0.5 h) of 71.6%.
In the case of `Cc1nc2ccc(OC(F)(F)F)cc2c2c1O[C@]1(CC2)C[C@H]2C(=O)N[C@]3(C(=O)NS(=O)(=O)C4(C)CC4)C[C@H]3C=CCCCCC[C@H](NC(=O)OC(C)(C)C)C(=O)N2C1`, the ring closure, yield of all isomers ([1]; from C=CCCCCC[C@H](NC(=O)OC(C)(C)C)C(=O)N1C[C@@]2(CCc3c(c(C)nc4ccc(OC(F)(F)F)cc34)O2)C[C@H]1C(=O)N[C@]1(C(=O)NS(=O)(=O)C2(C)CC2)C[C@H]1C=C, Zhan's catalyst, DCE, 2.32 mM, 70.0 °C, 6.0 h) is reported as 71%.
In the case of `Cc1nc2ccccc2c2c1O[C@]1(CC2)C[C@H]2C(=O)N[C@]3(C(=O)NS(=O)(=O)C4(C)CC4)C[C@H]3C=CCCCCC[C@H](NC(=O)OC(C)(C)C)C(=O)N2C1`, the ring closure, yield of all isomers ([1]; from C=CCCCCC[C@H](NC(=O)OC(C)(C)C)C(=O)N1C[C@@]2(CCc3c(c(C)nc4ccccc34)O2)C[C@H]1C(=O)N[C@]1(C(=O)NS(=O)(=O)C2(C)CC2)C[C@H]1C=C, Zhan's catalyst, DCE, 2.5 mM, 65.0 °C, 7.0 h) is reported as 62.9%.
Compound `COc1ccc2nc(C3CC3)c3c(c2c1)CC[C@]1(C[C@H]2C(=O)N[C@]4(C(=O)NS(=O)(=O)C5(C)CC5)C[C@H]4/C=C\CCCCC[C@H](NC(=O)OC(C)(C)C)C(=O)N2C1)O3` [Example 16, tert-Butyl (2R,6S,13aS,14aR,16aS,Z)-5′-cyclopropyl-9′-methoxy-14a-(1-methylcyclopropylsulfonylcarbamoyl)-5,16-dioxo-1′,2′,3,5,6,7,8,9,10,11,13a,14,14a,15,16, 16a-hexadecahydro-1H-spiro[cyclopropa[e]pyrrolo[1,2-a][1,4]diazacyclopentadecine-2,3′-pyrano[2,3-c]quinoline]-6-ylcarbamate] has a ring closure, yield of all isomers ([1]; from C=CCCCCC[C@H](NC(=O)OC(C)(C)C)C(=O)N1C[C@@]2(CCc3c(c(C4CC4)nc4ccc(OC)cc34)O2)C[C@H]1C(=O)N[C@]1(C(=O)NS(=O)(=O)C2(C)CC2)C[C@H]1C=C, Zhan's catalyst, DCE, 2.48 mM, 75.0 °C, 4.0 h) of 82.6%, an IC50 [3] of 0.009 nM and an EC50 (HCV genotype 1b replicon) of 0.69 nM.
Work on `COCC1(S(=O)(=O)NC(=O)[C@@]23C[C@H]2/C=C\CCCCC[C@H](NC(=O)OC(C)(C)C)C(=O)N2C[C@@]4(CCc5c(c(C(F)(F)F)nc6ccc(OC)cc56)O4)C[C@H]2C(=O)N3)CC1` [Example 49, tert-Butyl ((2R,6S,13AS,14AR,16AS,Z)-9′-methoxy-14a-(((1-(methoxymethyl)cyclopropyl)sulfonyl)carbamoyl)-5,16-dioxo-5′-(trifluoromethyl)-1′,2′,3,5,6,7,8,9,10,11, 13A,14,14A,15,16,16A-hexadecahydro-1H-spiro[cyclopropa[e]pyrrolo[1,2-A][1,4]diazacyclopentadecine-2,3′-pyrano[2,3-c]quinolin]-6-yl)carbamate] yielded a ring closure, yield of all isomers ([1]; from C=CCCCCC[C@H](NC(=O)OC(C)(C)C)C(=O)N1C[C@@]2(CCc3c(c(C(F)(F)F)nc4ccc(OC)cc34)O2)C[C@H]1C(=O)N[C@]1(C(=O)NS(=O)(=O)C2(COC)CC2)C[C@H]1C=C, Zhan's catalyst, DCE, 2.9 mM, 80.0 °C, 4.0 h) of 33%, an IC50 [3] of 0.014 nM and an EC50 (HCV genotype 1b replicon) of 9.13 nM.
